Experimental findings from US20230331781A1, “PAR4 DERIVED PEPTIDES, ANALOGS AND USES THEREOF” (Yissum Research Development Company of the Hebrew …, priority 2019, published 2023) are described below.

Entries after “also recorded” stand apart in the source; their conditions may differ. Numbered stars: 1 amine (or outer) side, 2 acyl side, 3 side chain; on linkers, the order of the positions; unused ones are H or OH. Bridge positions count the residues as written; N and C are the ends. Square brackets hold non-standard residues; d marks the D form. Ends that are not written are not given here. GlyBU(C4) = Gly building unit (N-alpha-functionalized Gly) carrying a C4 alkyl chain (n = m = 4), bridged through a urea group; CO = O=C([*:1])[*:2]

Assay [1] has as its target T1, PAR2 and Akt (Homo sapiens, UniProt P31749).
T1 construct: FLAG; expressed in transfected cells; host or cells: HEK293
As to the kind of experiment: PAR2-Akt association, immunoprecipitation in HEK293 cells transfected with Par2 and SLIGKV activated. It counts as cell-based. The following applies: HEK 293 cells, flag-hPar2, SLIGKV 200 μM; 150 μM, 1 hr prior to activation; FIG. 11. As to the method:
HEK293 cells were transiently transfected with Par2 followed by SLIGKV PAR2 activation in the presence and absence of PAR4 c(4-4) at 150 μM. IP of cell lysates following different time of activation was carried out using anti PAR2 abs. Detection of Akt was performed by anti Akt abs. β-actin serves as a control gene for loading.
Briefly, HEK 293 cells were transfected with 0.8 μg flag-hPar2 and serum starved overnight. PAR(4-4) in concentration of 150 μM was applied onto the cell monolayer for 1 hr prior to PAR2 activation (by the peptide SLIGKV—200 μM) for the indicated time periods (overall transfection period is 48 hrs).
The cells (HEK 293) were solubilized and lysed and protein cell lysates (400 μg) were used for immunoprecipitation analysis, as described in Example 4.

The subject of assay [2] is pY-EGFR. As to the kind of experiment: PAR4 induced EGFR tyrosine phosphorylation, HEK293 cells co-transfected with flg-Par4 and gfp-egfr (Western blot). The format is cell-based, human. The conditions noted are these: HEK293 cells co-transfected with hPar4 and egfr; AYPGKF 200 μM; 100 μM; FIG. 13B. As to the method: FIG. 13A—Activation of PAR4 induces phosphorylation of EGFR. HEK293 cells were co-transfected with 0.4 μg of wt flg-Par4 and 0.8 μg of gfp-egfr. Cells were serum starved over night following AYPGKF PAR4 activation (200 μM) for 5-45 min. Detection by Western blot analyses of pY-EGFR and EGFR was performed using either anti-phospho tyrosine or anti EGFR antibodies respectively. PAR4 activation induces EGFR tyrosine phosphorylation within 15 min. FIG. 13B—Pc(4-4) inhibits EGFR phosphorylation. HEK293 cells were co-transfected with 0.8 μg of wt flg-Par4 and 1 μg of gfp-egfr. Cells were serum starved over night following AYPGKF PAR4 activation (200 μM) for 5-45 min in the presence and absence of PAR4 c(4-4) (100 μM). Detection by Western blot analyses of pEGFR and EGFR was performed using either anti-phospho tyrosine or anti EGFR antibodies (1:1000 dilution) respectively. […] FIG. 13C—PAR4 mutants F347L and D349A abolish pTyr-EGFR. HEK293 cells were transiently co-transfected with either flg-Par4 or flg-Par4D349A or flg-hPar4F347L with egfr1 plasmid. Cells were serum starved over night following AYPGKF PAR4 activation (200 μM) for 5-45 min. Detection by Western blot analyses of pY-EGFR and EGFR was performed using either anti-phospho tyrosine or anti-EGFR antibodies respectively. In the presence of flg-Par4 potent pTyr-EGFR1 is observed within 15′ and 30′ AYPGKF activation. […]
For orientation: Immunoblotting shows a protein as a band on a membrane.

The test system of assay [3] is pEGFR. As to the kind of experiment: PAR4 induced pEGFR in MDA-MB-231 cells (Western blot). It counts as cell-based, human. The following applies: endogenous PAR4 and EGFR, AYPGKF 200 μM, FIG. 17. As to the method:
Activation of PAR4 induces phosphorylation of EGFR. This is seen 15 min following AYPGKF the synthetic hexa peptide application for PAR4 activation. MDA-231 cells were serum starved over night following AYPGKF PAR4 activation (200 μM) for 5-60 min. Detection by Western blot analyses of pY-EGFR and EGFR was performed using either anti-phospho tyrosine or anti EGFR antibodies respectively. PAR4 activation induces EGFR tyrosine phosphorylation within 15 min.
We have performed immunohistochemical (IHC) staining analyses of EGFR in Her2/Neu and TN breast cancer patient tissues. Analyses have indicated the presence of EGFR in both HER2/Neu as also in TN breast cancer tissue biopsy specimen (FIGS. 16A and 16B, respectively). Pc(4-4) Inhibits PAR4 Induced pEGFR in MDA-MB-231 Cells MDA-MB-231 cells were serum starved overnight following AYPGKF PAR4 activation (200 μM) for 5-60 min in the presence and absence of Pc(4-4) (200 μM). Detection by Western blot analyses of pEGFR and EGFR was performed using either anti-phosphotyrosine or anti-EGFR antibodies (1:1000 dilution), respectively. […] AYPGKF activation of PAR4 leads to pTyr-EGFR in MDA-231 cells (see FIG. 17). […] In the presence of Pc(4-4) cyclic peptide (right panel) potently (200 μM) inhibition of the phosphorylation of EGFR is observed (FIG. 17). […]

T1 sequence (P31749 whole entry): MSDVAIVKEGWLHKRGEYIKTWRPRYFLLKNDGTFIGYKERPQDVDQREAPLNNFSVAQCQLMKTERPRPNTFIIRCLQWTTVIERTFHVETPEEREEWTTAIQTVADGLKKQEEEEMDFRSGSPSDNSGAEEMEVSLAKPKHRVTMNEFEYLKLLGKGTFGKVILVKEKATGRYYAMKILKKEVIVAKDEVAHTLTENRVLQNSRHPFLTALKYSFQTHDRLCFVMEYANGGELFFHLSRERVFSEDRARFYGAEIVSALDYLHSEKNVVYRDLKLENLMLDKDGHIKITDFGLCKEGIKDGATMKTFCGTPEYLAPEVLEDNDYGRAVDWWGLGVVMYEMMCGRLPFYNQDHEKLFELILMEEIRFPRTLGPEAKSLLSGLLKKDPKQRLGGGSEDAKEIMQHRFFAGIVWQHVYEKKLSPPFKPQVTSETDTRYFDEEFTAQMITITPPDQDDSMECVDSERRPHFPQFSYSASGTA

For the substance “Pc(4-4): backbone cyclic analog of Formula I, m=n=4, ring size 30 atoms (S[GlyBU(C4)]EFRDK[GlyBU(C4)]; bridge 2-8 via CO; not fully specified; printed as SZ1EFRDKX3)”, the “inhibition of PAR2-AKT association (IP)” value in assay [1] is “efficiently inhibited”. Also, in assay [2], the “inhibition of PAR4 induced pY-EGFR” value is listed as “potent inhibition; also recorded: potently inhibited”. For the same substance, in assay [3], the “inhibition of PAR4 induced phosphorylation of EGFR” value was “potently inhibited”.
